Reference: patent publication US20180236016A1, “NEUROTRANSMITTER AND BRAIN MODULATING ORAL DELIVERY SYSTEM FOR ENHANCEMENT OF COGNITIVE FUNCTIONS AND ENERGY” (Steady Nutrition LLC, priority 2017, published 2018)

How the values were obtained:
[1] = in vivo; cited from earlier work
[2] = Sedimentation / precipitation of theobromine in the filled product; format: physicochemical; settings: in the emulsions of Example 3
Procedure: 2000 ml of conventional water based energy drink supplements were produced by blending all ingredients below, heating to 170 F and cooling to ambient temperature. About 30 ml of each composition were filled into HDPE plastic bottles. Example 1A contained 210 mg caffeine, 460 mg taurine, 120 mg N Acetyl L-Tyrosine, 300 mg glucuronolactone/30 ml serving. The water activity was 0.95; water content was 86% and pH of 2.90. […] Products were filled into 30 ml HDPE bottles and capped.
For each formulation, 1000 g batches were made. Milk fat and cocoa butter were weighted up and pre-blended at the specified amounts, then heated up to 130 F in a processing vessel. Water, mono and diglycerides, sugar, glycerin, cocoa powder and other optional ingredients were added Caffeine, theobromine, glucuronolactone, taurine and N acetyl L-tyrosine were mixed in. The admixture was heated up to 170-180 F for about 5 minutes and then cooled to 100 F. The water activity was adjusted to 0.85 or lower by the addition of glycerin. The entire admixture was homogenized at 1,000 psi for example 3A and at to 3,000 psi for example 3B and 3C. […] Water activity readings were 0.81, 0.82 and 0.72 for example 3A, 3B and 3C respectively. The pH readings were 5.8, 5.3 and 6.7 for example 3A, 3B and 3C respectively. Viscosity readings were 110, 170 and 250 centipoise for example 3A, 3B and 3C respectively.

[3] = cited from earlier work

precipitation of theobromine [2] | Compound | impact is felt in [1] [min] | half-life [1] [h] | water solubility [3] | fat / lipid solubility [3]
 | Cn1c(=O)c2c(ncn2C)n(C)c1=O [caffeine, reference compound] | 15 to 30 |  |  | 
not precipitated | Cn1cnc2c1c(=O)[nH]c(=O)n2C [theobromine] |  | 7 to 12 | not water soluble | 
 | Phosphatidylcholine |  |  | not water soluble | only lipid soluble
 | Phosphatidylserine [PS] |  |  | not water soluble | only lipid soluble
